The term IC50 denotes the concentration that inhibits the measured activity by half.

These results are taken from patent US20250144087A1, “USE OF VE607 FOR THE TREATMENT OF SARS-COV-2 INFECTIONS AND RELATED DISEASES” (priority 2022, published 2025).

Data set [1] has as its system pseudoviral particles expressing the Spike from SARS-CoV-2. As to the kind of experiment: microbe, parasite or virus in culture. The format is cell-based.
A further data set addresses T1, SARS-CoV-2 RBD (Severe acute respiratory syndrome coronavirus 2, UniProt P0DTC2).
T1 construct: hexahistidine (C); made in house; host or cells: FreeStyle 293 F cells
Type of data set: binding.

Data set [2] has as its system pseudoviral particles bearing the SARS-CoV-1 Spike. The data set can be described thus: microbe, parasite or virus in culture. The settings on record: Severe acute respiratory syndrome coronavirus, HEK-293T. The format is cell-based.
The subject of data set [3] is pseudoviral particles bearing the VSV-G. As to the kind of experiment: microbe, parasite or virus in culture. The format is cell-based. The settings on record: Vesicular stomatitis virus, HEK-293T.
The subject of data set [4] is SARS-CoV-2 S glycoprotein.
Another data set relates to VERO-E6 cells. As to the kind of experiment: Toxicity on VERO-E6 cells, AquaVivid staining. The settings on record: concentrations up to 100 μM.

Regarding `O[C@H](COc1cccc(OC[C@H](O)CN2CCCCC2)c1)CN1CCCCC1` [(R,S)-VE607], the “fold less potent than the two other enantiomers in SARS-CoV-2 pseudoviral inhibition” value in data set [1] (SARS-CoV-2 S pseudoviral particles) was “about 2 fold”.

On to `CN1CCN(c2ccc(CNC(=O)c3ccno3)cc2)CC1` [SSAA09E2, reference compound], for which, at SARS-CoV-2 RBD, the “ΔTm (change of melting temperature of RBD)” value was −0.7 °C. Also, in data set [1], the “effect on the infection of pseudoviral particles” value was “no effect”.

In the case of `C=CCC(/C=C/OCC(O)CN(CC)CCC)OCC(O)CN(CC)CCC` (stereo not shown) [VE607], the “ΔTm (change of melting temperature of RBD)” value at SARS-CoV-2 RBD is −2.3 °C. Moreover, the IC50 was 1.47 µM in data set [2]; 3.06 µM in data set [1] (Severe acute respiratory syndrome coronavirus 2, HEK-293T); greater than 100 µM in data set [3]. Moreover, the “effect on Spike conformational landscape (up/down)” value in data set [4] is “stabilized the “up” conformation”. Further, the toxicity entry in the data set on VERO-E6 cells is on record as “no toxicity was observed”.

sACE2: in data set [4], the “effect on Spike conformational landscape (up/down)” value is given as “shifted the conformational landscape of the Spike to the “up” conformation”.
